# Where two headings read alike, the source gives them in different places.
# Assays:
# [1] = system: Human gastric cancer cells (MKN-45 Cell); assay: Anticancer efficacy in xenograft mouse model; assay type: in vivo, nude mice; conditions: 10 mg/kg oral once/day, Day 12, MKN-45 xenograft
# Procedure: This study was conducted to evaluate the anticancer efficacy of the compound of Example 15 of the present invention in a xenograft tumor model. Human gastric cancer cells (MKN-45 Cell) were purchased from the Korea Cell Line Bank and cultured in a 5% CO2 incubator at 37° C. by using an RPMI 1640 medium containing 1% penicillin-streptomycin and 10% fetal bovine serum. The cultured cells were separated using 0.25% Trypsin-0.02% EDTA every 3 to 4 days and then subcultured. Cells. Four-week-old female nude mice were purchased, and after a one-week acclimatization period in a laboratory environment, the nude mice that reached 5 weeks of age were used in the experiment. MKN-45 cells were made into a single cell suspension by using Matrigel and DPBS, and implanted subcutaneously into nude mice at a concentration of 1×10^7 cells per mouse. One week after MKN-45 cell transplantation, experimental animals with tumors with a specific size were selected and divided into 3 groups with 10 animals per group. The compound of Example 7 was administered orally at administration concentrations of 10 mg/kg and 30 mg/kg, and the experiment was conducted for 12 days.
# The size of the tumor was calculated using the formula ‘short axis×short axis×long axis/2,’ and the results of the changes in tumor size change are illustrated in FIG. 2.
# [2] = Pharmacokinetic profile in beagles, single oral dose; assay type: in vivo, beagle dogs; conditions: male, dog, plasma, beagle, mean n=3
# Procedure: A total of 18 male beagle dogs (Marshall Beagle, Beijing) with an average weight of 9 to 11 kg were obtained, acclimatized, and distributed into a total of 6 groups, 3 dogs per test group. During the entire experiment, all beagle dogs were supplied with standardized solid food and water. The breeding room was kept under controlled and monitored conditions, while maintaining a temperature of 18° C. to 26° C., a humidity of 40% to 70%, and a light-dark cycle of 12 hours-12 hours.
# The test group consisted of beagle dogs that were orally administered the vehicle as the vehicle group, beagle dogs that were orally administered control drug 1 (vonoprazan) as the comparison group, and administration group was beagle dogs orally administered with Example 7.
# Blood samples were obtained from peripheral veins at 30 minutes, 1 hour, 2.5 hours, 4.5 hours, 7.5 hours, 25.5 hours, and 49.5 hours after drug administration, respectively. Blood samples were centrifuged (2 to […], 3,200 g, 10 minutes) to obtain plasma. The amount of the administered compound into the plasma samples was quantified by using LC-MS/MS. Pharmacokinetic parameters were obtained by using a non-compartmental model in Phoenix WinNonlin 6.3 software. ‘AUC0-last’ indicates the area under the time curve, ‘Cmax’ indicates the highest plasma concentration, ‘ Tmax’ indicates the time to reach the highest plasma concentration, and ‘T1/2’ indicates the half-life.
# [3] = Oral bioavailability in beagle dogs; assay type: in vivo; conditions: dog, plasma; for AUC(0-t) / half-life / Cmax / Tmax: mean n=3; for bioavailability: po, read-out: BA (bioavailability)
# Procedure: To evaluate oral bioavailability, Example 7 was administered intravenously or orally to beagle dogs.
# For the intravenous administration group, blood samples were obtained from peripheral veins 1 minute, 5 minutes, 15 minutes, 30 minutes, 1 hour, 2 hours, 4 hours, 8 hours, and 24 hours after drug administration. For the oral administration group, blood samples were obtained from peripheral veins 15 minutes, 30 minutes, 1 hour, 2 hours, 4 hours, 6 hours, 8 hours, 12 hours, and 24 hours after drug administration. Blood samples collected at different times were treated with EDTA and centrifuged (2 to 8° C., 3,200 g, 10 minutes) to separate plasma.
# The amount of administered compound into the plasma sample was quantified by using LC-MS/MS. Pharmacokinetic parameters were obtained by using a non-compartmental model in Phoenix WinNonlin 6.3 software.
# ‘AUC0-last’ indicates the area under the time curve, ‘Cmax’ indicates the highest plasma concentration, ‘Tmax’ indicates the time to reach the highest plasma concentration, ‘T1/2’ indicates the half-life, and ‘BA’ indicates the bioavailability.
structure (smiles),measurement,setting,value
"[2H]C([2H])([2H])NCc1cc(-c2ccccc2F)n(S(=O)(=O)c2ccc(F)cc2)c1 [Example 7, N-((5-(2-fluorophenyl)-1-((4-fluorophenyl)sulfonyl)-1H-pyrrol-3-yl)methyl)methan-d3-amine]",tumor size reduced as compared to the Control group (vehicle),[1],42%
same,AUC(0-t),[2]; oral single dose 0.1 mg/kg,99.4 ng·h/mL
same,Cmax,[2]; oral single dose 0.1 mg/kg,32.3 ng/mL
same,Tmax,[2]; oral single dose 0.1 mg/kg,0.833 h
same,half-life,[2]; oral single dose 0.1 mg/kg,100 min
same,AUC(0-t),[2]; oral single dose 0.3 mg/kg,808 ng·h/mL
same,Cmax,[2]; oral single dose 0.3 mg/kg,165 ng/mL
same,Tmax,[2]; oral single dose 0.3 mg/kg,1 h
same,half-life,[2]; oral single dose 0.3 mg/kg,176 min
same,AUC(0-t),[2]; oral single dose 1 mg/kg,2890 ng·h/mL
same,Cmax,[2]; oral single dose 1 mg/kg,397 ng/mL
same,Tmax,[2]; oral single dose 1 mg/kg,1 h
same,half-life,[2]; oral single dose 1 mg/kg,182 min
same,AUC(0-t),[2]; oral single dose 3 mg/kg,19200 ng·h/mL
same,Cmax,[2]; oral single dose 3 mg/kg,1430 ng/mL
same,Tmax,[2]; oral single dose 3 mg/kg,2.17 h
same,half-life,[2]; oral single dose 3 mg/kg,257 min
same,AUC(0-t),[3]; intravenous 0.2 mg/kg,423 ng·h/mL
same,half-life,[3]; intravenous 0.2 mg/kg,214 min
same,AUC(0-t),[3]; oral 2 mg/kg (1 mg/ml),6940 ng·h/mL
same,Cmax,[3]; oral 2 mg/kg (1 mg/ml),632 ng/mL
same,Tmax,[3]; oral 2 mg/kg (1 mg/ml),1.53 h
same,half-life,[3]; oral 2 mg/kg (1 mg/ml),333 min
same,AUC(0-t),[3]; oral 6 mg/kg (3 mg/ml),15100 ng·h/mL
same,Cmax,[3]; oral 6 mg/kg (3 mg/ml),1120 ng/mL
same,Tmax,[3]; oral 6 mg/kg (3 mg/ml),3.67 h
same,half-life,[3]; oral 6 mg/kg (3 mg/ml),449 min
same,AUC(0-t),[3]; oral 20 mg/kg (10 mg/ml),49300 ng·h/mL
same,Cmax,[3]; oral 20 mg/kg (10 mg/ml),3350 ng/mL
same,Tmax,[3]; oral 20 mg/kg (10 mg/ml),3.33 h
same,half-life,[3]; oral 20 mg/kg (10 mg/ml),1100 min
same,bioavailability,"[3]; 2 mg/kg, oral 2 mg/kg (1 mg/ml)",≥ 100%
same,bioavailability,"[3]; 6 mg/kg, oral 6 mg/kg (3 mg/ml)",≥ 100%
same,bioavailability,"[3]; 20 mg/kg, oral 20 mg/kg (10 mg/ml)",≥ 100%

# Source: US20250051275A1, “PYRROLE DERIVATIVE OR PHARMACEUTICALLY OR SITOLOGICALLY ACCEPTABLE SALTS THEREOF, AND COMPOSITION FOR PREVENTION, AMELIORATION OR TREATMENT OF GASTROINTESTINAL DISORDERS COMPRISING SAME AS ACTIVE INGREDIENT” (HANA PHARM CO., LTD., priority 2021, published 2025)
